Assay results reported in PMC9573696, “Experimental Examination of Solubility and Lipophilicity as Pharmaceutically Relevant Points of Novel Bioactive Hybrid Compounds” (Molecules, 2022).
In brackets after ≈: the same amount, converted by molar mass. Marks after values point to notes of the source that are not given here.

Assays:
[1] = Equilibrium (thermodynamic) solubility, shake-flask method; type: physicochemical; settings: for Solubility S × 10^2 / Solubility x × 10^3: 1-Octanol; for Solubility S × 10^2 / Solubility x × 10^3 / Solubility S × 10^4 / Solubility x × 10^5 / Solubility S × 10^5 / Solubility x × 10^6: amorphous state; for Solubility S × 10^4 / Solubility x × 10^5: Buffer pH 2.0; for Solubility S × 10^5 / Solubility x × 10^6: Buffer pH 7.4
Excerpt: The experimental solubility values of hybrids in the selected solvents within the temperature range of 293.15–313.15 K expressed in molarity are summarized in Table 2. The comparative analysis of the reference values of the solubility of compounds I–III at the standard temperature of 298.15 K is given as a histogram in Figure 3.
Shake-flask method as “gold standard” was used for determination thermodynamic solubility synthesized compounds in buffer solutions (pH 2.0 and 7.4) and 1-octanol in the temperature range of 293.15–313.15 K with a step of 5 degrees at atmospheric pressure. Excessive amounts of compound were added to glass vials c 12 mL of selected solvent. The heterogeneous system is closed with a lid and vigorously stirred at the selected temperature in an air thermostat with a stirring device until the solubility equilibrium has been reached. The time required for establishing a constant value of the solution concentration was determined from the solubility kinetic dependences and averaged 2 days. The equilibrated solutions were first survived to aim sedimentation of solid phase during 10 h, then centrifuged at 20,000 rpm for 30 min at specific temperatures, and then quickly filtered using a syringe equipped with a hydrophilic filter Millex-GV 0.22 µm (Ireland). Concentration of saturated solution was measured using spectrophotometer Cary-50 (Varian, USA) with an accuracy of 2–4%. The absorbances of compounds studied were measured at wavelengths 332 and 334 nm in buffer solutions and 1-octanol, respectively. If necessary, an aliquot was diluted with an appropriate solvent. The final pH of the saturated buffers was monitored. The solubility of compounds in each solvent was determined by repeating the procedure three times.
Mole fraction concentration was calculated from solubility value S expressed in mol∙L^−1 using Equation (10):(10) x=M2S/S(M2−M1)+1000ρ, where M1 and M2 are the molar masses of solute and solvent, respectively, and ρ (g∙cm^−3) is the density of the pure solvents. The mole fraction solubilities for buffer solutions were calculated taking into account the buffer compositions. The used values of densities are given in Table S6 in Supplementary Material.

[2] = Apparent thermodynamic functions of dissolution (van't Hoff); type: physicochemical; settings: Thm = 302.98 K
Excerpt: The dissolution of the new hybrids was characterized based on apparent thermodynamic parameters obtained from temperature dependences of solubility of the studied compounds in the selected solvents (Figure 6). […] The van’t Hoff enthalpy of dissolution can be expressed as the inclination of a tangent to a solubility curve plotted as lnx vs. (1/T − 1/Thm) by Equation (6): (6) ΔHsolo=−R(∂lnx/∂(1/T−1/Thm))=−R⋅slope where R = 8.314 J⋅K^−1·mol^−1 is the universal gas constant. Thm = 302.98 K denotes the mean harmonic temperature, which was calculated by Equation (7):(7) Thm=n/∑i=1n1/Ti where n represented the number of experimental temperatures. The apparent standard Gibbs energy was evaluated by Equation (8):(8) ΔGsolo=−RThm×intersept
The apparent standard solution entropies were obtained from the well-known relationship:(9) ΔSsolo=ΔHsolo−ΔGsolo/Thm
The calculated apparent thermodynamic solubility functions of dissolution (Gibbs energy, enthalpy, and entropy) at standard temperature 298.15 K for hybrid compounds were collected in Table 4.

- Solubility S × 10^2 ([1]; 293.15 K): 1.1196 mol∙L^−1 (printed as S × 10^2)
- Solubility x × 10^3 ([1]; 293.15 K): 1.7767 mol. frac. (printed as x × 10^
- Solubility S × 10^2 ([1]; 298.15 K): 1.2269 mol∙L^−1 (printed as S × 10^2)
- Solubility x × 10^3 ([1]; 298.15 K): 1.9566 mol. frac. (printed as x × 10^
- Solubility S × 10^2 ([1]; 303.15 K): 1.3464 mol∙L^−1 (printed as S × 10^2)
- Solubility x × 10^3 ([1]; 303.15 K): 2.1577 mol. frac. (printed as x × 10^
- Solubility S × 10^2 ([1]; 308.15 K): 1.4730 mol∙L^−1 (printed as S × 10^2)
- Solubility x × 10^3 ([1]; 308.15 K): 2.3729 mol. frac. (printed as x × 10^
- Solubility S × 10^2 ([1]; 313.15 K): 1.6045 mol∙L^−1 (printed as S × 10^2)
- Solubility x × 10^3 ([1]; 313.15 K): 2.5979 mol. frac. (printed as x × 10^
- solubility at 2 days ([1]; 25 °C, organic solvent or mixture, thermodynamic from solid, 1-octanol, text values match 298.15 K, read-out: Solubility S in the alcohol (1-octanol)): 12.3 mM (≈ 8110 µg/mL)
- Solubility S × 10^4 ([1]; 293.15 K): 6.3622 mol∙L^−1 (printed as S × 10^4)
- Solubility x × 10^5 ([1]; 293.15 K): 1.1474 mol. frac. (printed as x × 10^
- Solubility S × 10^4 ([1]; 298.15 K): 6.7826 mol∙L^−1 (printed as S × 10^4)
- Solubility x × 10^5 ([1]; 298.15 K): 1.2247 mol. frac. (printed as x × 10^
- Solubility S × 10^4 ([1]; 303.15 K): 7.1958 mol∙L^−1 (printed as S × 10^4)
- Solubility x × 10^5 ([1]; 303.15 K): 1.3013 mol. frac. (printed as x × 10^
- Solubility S × 10^4 ([1]; 308.15 K): 7.5805 mol∙L^−1 (printed as S × 10^4)
- Solubility x × 10^5 ([1]; 308.15 K): 1.3731 mol. frac. (printed as x × 10^
- Solubility S × 10^4 ([1]; 313.15 K): 7.9724 mol∙L^−1 (printed as S × 10^4)
- Solubility x × 10^5 ([1]; 313.15 K): 1.4468 mol. frac. (printed as x × 10^
- Solubility S × 10^5 ([1]; 293.15 K): 5.8572 mol∙L^−1 (printed as S × 10^5)
- Solubility x × 10^6 ([1]; 293.15 K): 1.0651 mol. frac. (printed as x × 10^
- Solubility S × 10^5 ([1]; 298.15 K): 6.7347 mol∙L^−1 (printed as S × 10^5)
- Solubility x × 10^6 ([1]; 298.15 K): 1.2262 mol. frac. (printed as x × 10^
- Solubility S × 10^5 ([1]; 303.15 K): 7.7877 mol∙L^−1 (printed as S × 10^5)
- Solubility x × 10^6 ([1]; 303.15 K): 1.4201 mol. frac. (printed as x × 10^
- Solubility S × 10^5 ([1]; 308.15 K): 8.9503 mol∙L^−1 (printed as S × 10^5)
- Solubility x × 10^6 ([1]; 308.15 K): 1.6349 mol. frac. (printed as x × 10^
- Solubility S × 10^5 ([1]; 313.15 K): 10.2665 mol∙L^−1 (printed as S × 10^5)
- Solubility x × 10^6 ([1]; 313.15 K): 1.8788 mol. frac. (printed as x × 10^
- TΔSsolo ([2]; 1-Octanol): -0.22 kcal/mol
- ΔGsolo ([2]; 1-Octanol): 3.68 ± 0.072 kcal/mol
- ΔHsolo ([2]; 1-Octanol): 3.47 ± 0.024 kcal/mol
- ΔSsolo ([2]; 1-Octanol): −3.1 ± 0.2 J·mol^−1·K^−1
- TΔSsolo ([2]; Buffer pH 2.0): -4.59 kcal/mol
- ΔGsolo ([2]; Buffer pH 2.0): 6.69 ± 0.096 kcal/mol
- ΔHsolo ([2]; Buffer pH 2.0): 2.1 ± 0.024 kcal/mol
- ΔSsolo ([2]; Buffer pH 2.0): −64.4 ± 3.8 J·mol^−1·K^−1
- TΔSsolo ([2]; Buffer pH 7.4): -2.87 kcal/mol
- ΔGsolo ([2]; Buffer pH 7.4): 8.05 ± 0.17 kcal/mol
- ΔHsolo ([2]; Buffer pH 7.4): 5.19 ± 0.048 kcal/mol
- ΔSsolo ([2]; Buffer pH 7.4): −40.3 ± 2.3 J·mol^−1·K^−1
Structure (SMILES): O=c1c2sc(=S)n(-c3ccc(Cl)cc3)c2ncn1CCCN1CCN(CC(O)(Cn2cncn2)c2ccc(F)cc2F)CC1 (stereo not shown) [III, 6-[3-[4-[2-(2,4-difluorophenyl)-2-hydroxy-3-(1H-1,2,4-triazol-1-yl)propyl]-1-piperazinyl]propyl]-2,3-dihydro-3-(4-chlorophenyl)-2-thioxo-thiazolo[4,5-d]pyrimidin-7(6H)-one]
